Measurements as given in patent publication US9476870B2, “Methods and agents for screening for compounds capable of modulating gene expression” (PTC Therapeutics, Inc., priority 2003, dated 2016).

What was measured:
VEGF UTRs = experiment: luciferase reporter inhibition in B9 (VEGF 5' and 3' UTRs) versus B12 (control UTRs) stable cell lines; assay type: cell-based, human; conditions: about 10^-1 nM to about 10^4 nM
Protocol: A monocistronic reporter construct (pLuc/vegf5′+3′UTR) is under the transcriptional control of the CMV promoter and contains the VEGF 5′ UTR driving the luciferase reporter upstream of the VEGF 3′UTR. Stable cell lines are generated by transfecting 293 cells with the pLuc/vegf5′+3′UTR construct. A stable cell line is cultured under hygromycin B selection to create clonal cell lines consistent with protocols well known in the art. After two weeks of selection, clonal cell lines are screened for luciferase activity. The luciferase activity of several clonal cell lines (hereafter “Clones”) are compared and normalized against total protein content. Clones are maintained under hygromycin B selection for more than three months with intermittent monitoring of luciferase activity. Clones are stable and maintain a high level of luciferase expression. Many Clones, for example, about twenty, may be compared to each other with respect to luciferase activity. […] Particular parameters for Clones are studied prior to selection for use in post-transcriptional, high-throughput screening (HTS). […]
Chemical libraries in excess of 150,000 compounds are screened by HTS with a Clone containing the monocistronic reporter construct, pLuc/vegf5′+3′UTR. […] Data is analyzed as a normal distribution, which is apparent from graphical and statistical analysis of skewness and kurtosis. […]

FGF-2 and IGF-1 = experiment: ELISA assays for expression of angiogenesis factors in HeLa cells; assay type: cell-based; conditions: Homo sapiens, read-out: EC50 for inhibition of all these cytokines
Protocol: Compounds that target multiple angiogenesis factors (including VEGF) for the treatment of cancers are also identifiable. Several targets are used for these purposes, including TNF-α, FGF-2, G-CSF, IGF-1, PDGF, and HIF-1α. ELISA assays analyze levels of expression of these factors using commercially available kits from R&D Systems (Minneapolis, Minn.). UTR-specific HTS identified compounds are tested for their ability to inhibit the expression of a subset of these proteins, including FGF-2 and IGF-1 in HeLa cells.

With `COc1ccc(C[C@H](N)C(=O)N[C@H]2[C@@H](O)[C@H](n3cnc4c(N(C)C)ncnc43)O[C@@H]2CO)cc1` [puromycin] the “difference in inhibition of luciferase expression between B9 and B12 cell lines” value (VEGF UTRs) was “No difference” and the EC50 (FGF-2 and IGF-1) was 200 to 2000 nM.
